In data set [1] the test system is MCF-7 breast carcinoma cell line. Put plainly: MTT cytotoxic activity against MCF-7 breast carcinoma cell line. The format is cell-based. Conditions: Homo sapiens, MCF7; MTT assay, MCF-7 cells, 24 h incubation. The protocol:
Cytotoxic activity of the synthesized acrylate derivatives 5a–6i was evaluated against the MCF-7 breast carcinoma cell line using the MTT colorimetric assay. CA-4 was included as a positive control. The results were summarized as IC50 values in Table 1.
Antiproliferative activity of the constructed acrylate molecules 5a–6i was determined on MCF-7 cell line as reported previously.[38] See ESI Appendix A. ^† […]
(§1) S4.2.1. Cytotoxic activity evaluation
To measure the cytotoxic actvity of the synthesized acrylate derivatives 5a,b and 6a-i in breast cancer (MCF-7) cell line. Cell viability assay was assessed using MTT assay method. Cells at density of 1 x 104 were seeded in a 96-well plate at 37 °C for 24 h under 5% CO2. After incubation, the cells were treated with different concentrations of the test acrylate derivatives 5a-6i and incubated for 24 h, then 20 µl of MTT solution at 5 mg/mL was applied and incubated for 4 h at 37 °C. Dimethyl sulphoxide (DMSO) in volume of 100 µl was added to each well to dissolve the purple formazan that had formed. The color intensity of the formazan product, which represents the growth condition of the cells, is quantified by using an ELISA plate reader (EXL 800, USA) at 570 nm absorbance. The experimental conditions were carried out with at least three replicates, and the experiments were repeated at least three times. […]
(Tetrazolium dyes change colour on reduction, which living cells bring about.)

A further data set addresses T1, β-tubulin (Homo sapiens, UniProt P07437).
T1 construct: utilizing MCF-7 breast carcinoma cells; endogenous in cells; host or cells: MCF-7 breast carcinoma cells
Put plainly: β-tubulin polymerization inhibition in MCF-7 cells (Human Beta-tubulin SimpleStep ELISA kit). It counts as cell-based. Conditions: 48 h; for β-tubulin polymerization inhibition percentage: at IC50 concentration.
Description: The disruption of the cellular microtubule structure and, more importantly, microtubule function that result from inhibiting β-tubulin polymerization leads to the triggering of cellular apoptosis.[30,31] Inhibition of tubulin polymerization has been identified as a possible therapeutic target for the creation of new cancer therapies.[32]
as §1
(§2) To measure the cytotoxic actvity of the synthesized acrylate derivatives 5a,b and 6a-i in breast cancer (MCF-7) cell line. Cell viability assay was assessed using MTT assay method. Cells at density of 1 x 104 were seeded in a 96-well plate at 37 °C for 24 h under 5% CO2. After incubation, the cells were treated with different concentrations […]
(§3) solution at 5 mg/mL was applied and incubated for 4 h at 37 °C. Dimethyl sulphoxide (DMSO) in volume of 100 µl was added to each well to dissolve the purple formazan that had formed. The color intensity of the formazan product, which represents the growth condition of the cells, is quantified by using an ELISA plate reader (EXL 800, USA) at 570 nm absorbance. The experimental conditions were carried out with at least three replicates, and the experiments were repeated at least three times.
(§4) S4.2.2. Tubulin polymerization Assay
(In general: ELISA stands for enzyme-linked immunosorbent assay.)

A further data set deals with MCF-10A. Put plainly: MTT cytotoxic activity against MCF-10A cells. Particulars: Homo sapiens, MTT assay. It counts as cell-based.
Another data set relates to Bcl-2. Put plainly: qRT-PCR gene expression of Bcl-2 in MCF-7 cells. Particulars: 2.57 μM, 48 h. It counts as cell-based. From the text:
(§5) p53, Bax and Bcl-2 play a key role in controlling intrinsic mitochondrial cellular death.[36] […] During the apoptotic process, these mediators have opposing effects. p53 and Bax have proapoptotic impacts, while Bcl-2 has anti-apoptotic effects. […] This assay utilized the quantitative real time reverse transcriptase PCR (qRT-PCR) assay. […] On the other hand, compound 6e decreased the level of anti-apoptotic gene Bcl-2 level by 0.38-fold less than untreated cells.
(§6) The MCF-7 cell line was used for measurement of the expression levels of Apoptotic markers. […]
(§7) S4.2.5. qRT-PCR measurements of p53, Bax and Bcl2 for compound 6e
(§8) Real-time PCR for p53, BAX and Bcl-2 genes expression was done using commercial Qiagen RNA extraction/ BioRad SYBER green PCR master mix according manufacturer's instructions. Briefly, 2 µl of cDNA template, 10 pMol of each forward and reverse primer, 10 µl of 2X Master Mix and to 20 µl total reaction mixture volume by nuclease free water and then was introduced to thermal cycler instrument (Thermo Scientific, USA). The cycling parameters for the PCR amplification were achieved by initial denaturation at 95 °C for 3 minutes followed by 40 cycles of 94 °C for 15 seconds and annealing/extension step at 60 °C for 1 min. Relative quantification of target genes was run on Rotor-Gene 6000 Series Software 1.7 (Build […]
(§9) Table 1: The primer sequences for Real Time PCR assay
Background: Real-time PCR tracks product formation cycle by cycle.

Data set [2] concerns MCF-7 breast carcinoma cells. Kind of data set: Annexin V-FITC/PI apoptosis assay in MCF-7 cells. The format is cell-based. Conditions: 2.57 μM, 48 h. As for the experimental part: as §1, §2, §3
S4.2.2. Tubulin polymerization Assay […]
to manufacturer’s instructions using # abcam Human Beta-tubulin simplestep ELISA […]
(§10) S4.2.3. Cell cycle analysis of compound 6e
Cell cycle analysis in MCF-7 cells was investigated using fluorescent Annexin V-FITC/ PI detection kit (BioVision EZCellTM Cell Cycle Analysis Kit Catalog #K920) by flow cytometry assay. MCF-7 cells at a density of 2 × 10^5 per well were harvested and washed twice in PBS. […]
immediately analyzed using FACS Calibur flow cytometer (Becton and Dickinson, […]

The next data set concerns Bax. Kind of data set: qRT-PCR gene expression of Bax in MCF-7 cells. The format is cell-based. Conditions: 2.57 μM, 48 h.
Description: as §5, §6, §7, §8, §9

For a further data set, the system named is Bax/Bcl-2. Kind of data set: Bax/Bcl-2 ratio from qRT-PCR in MCF-7 cells. It counts as cell-based. Conditions: 2.57 μM, 48 h.
Description: as §5, §6, §7, §8, §9

The subject of the next data set is p53. Put plainly: qRT-PCR gene expression of p53 in MCF-7 cells. It counts as cell-based. Conditions: 2.57 μM, 48 h.
Description: as §5, §6, §7, §8, §9

In data set [3] the test system is MCF-7 breast carcinoma cells. Put plainly: Flow cytometric cell cycle analysis of MCF-7 cells. It counts as cell-based. Particulars: 2.57 μM, 48 h. The protocol: The MCF-7 cell line was used for cell cycle analysis. Assay was carried out as reported previously.[39] See ESI Appendix A. ^† […]
as §1
To measure the cytotoxic actvity of the synthesized acrylate derivatives 5a,b and 6a-i in breast cancer (MCF-7) cell line. Cell viability assay was assessed using MTT assay method. Cells at density of 1 x 104 were seeded in a 96-well plate at 37 °C for 24 h under 5% CO2. After incubation, the cells were treated with different concentrations of the test acrylate derivatives 5a-6i and incubated for 24 h, then 20 µl of MTT solution at 5 mg/mL was applied and incubated for 4 h at 37 °C. Dimethyl sulphoxide (DMSO) in volume of 100 µl was added to each well to dissolve the purple formazan that had formed. The color intensity of the formazan product, which represents the growth condition of the cells, is quantified by using an ELISA plate reader (EXL 800, USA) at 570 nm absorbance. The experimental conditions were carried out with at least three replicates, and the experiments were repeated at least three times.
as §4
Compound 6e and CA-4 were evaluated for their tubulin inhibitory activity according to manufacturer’s instructions using # abcam Human Beta-tubulin simplestep ELISA […]
as §10
Cell cycle analysis in MCF-7 cells was investigated using fluorescent Annexin V-FITC/ PI detection kit (BioVision EZCellTM Cell Cycle Analysis Kit Catalog #K920) by flow cytometry assay. MCF-7 cells at a density of 2 × 10^5 per well were harvested and washed twice in PBS. After that, the cells were incubated at 37 °C and 5% CO2.
The medium was incubated with the tested compound 6e at ita IC50 (µM) for 48 h, washed twice in PBS, fixed with 70% ethanol, rinsed again with PBS. Afterward, medium was stained with DNA fluorochrome PI for 15 min at 37 °C. The samples were immediately analyzed using Facs Calibur flow cytometer (Becton and Dickinson, Heidelberg, Germany).
S4.2.4. Apoptosis assay for compound 6e […]

Where “and” joins values, the source holds several entries; their conditions need not be identical. Equal entries are not always repeated.

From paper PMC10402871, “Design, synthesis and antiproliferative screening of newly synthesized acrylate derivatives as potential anticancer agents” (RSC Advances, 2023) come the findings set out here.

Broadly, the IC50 is the midpoint of a concentration-inhibition curve. A lower IC50 goes with greater potency in that assay. A word on the melting point: it is the temperature of the solid-liquid transition.

T1 sequence (P07437 whole entry): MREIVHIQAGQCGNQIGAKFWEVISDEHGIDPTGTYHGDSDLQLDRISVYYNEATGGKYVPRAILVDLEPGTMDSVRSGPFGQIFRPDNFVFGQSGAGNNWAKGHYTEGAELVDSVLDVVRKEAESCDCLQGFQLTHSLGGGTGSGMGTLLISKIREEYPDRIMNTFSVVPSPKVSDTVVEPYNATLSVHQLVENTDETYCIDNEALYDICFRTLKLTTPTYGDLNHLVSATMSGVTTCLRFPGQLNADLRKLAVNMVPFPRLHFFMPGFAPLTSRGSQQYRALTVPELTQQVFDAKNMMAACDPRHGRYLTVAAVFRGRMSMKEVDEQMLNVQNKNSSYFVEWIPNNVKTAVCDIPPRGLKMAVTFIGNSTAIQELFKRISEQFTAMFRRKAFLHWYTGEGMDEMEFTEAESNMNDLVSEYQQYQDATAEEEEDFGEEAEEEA
T1 sequence (P68363 whole entry partner): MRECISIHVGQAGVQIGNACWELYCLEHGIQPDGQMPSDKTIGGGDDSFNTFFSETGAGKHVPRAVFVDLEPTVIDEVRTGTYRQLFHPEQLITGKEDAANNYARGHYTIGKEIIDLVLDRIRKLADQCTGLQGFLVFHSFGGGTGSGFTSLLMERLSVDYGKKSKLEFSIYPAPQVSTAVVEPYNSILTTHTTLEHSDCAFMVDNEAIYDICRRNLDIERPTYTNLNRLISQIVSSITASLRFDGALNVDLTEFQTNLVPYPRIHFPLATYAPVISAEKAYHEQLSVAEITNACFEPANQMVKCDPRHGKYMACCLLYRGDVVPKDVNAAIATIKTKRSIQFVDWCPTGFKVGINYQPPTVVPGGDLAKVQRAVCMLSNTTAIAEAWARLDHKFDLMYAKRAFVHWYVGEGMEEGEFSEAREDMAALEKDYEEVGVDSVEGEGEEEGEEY

For the molecule `CCCOC(=O)/C(=C/c1ccc(OC)c(OC)c1OC)NC(=O)c1ccc(OC)c(OC)c1` [6c, (Z)-Propyl 2-(3,4-dimethoxybenzamido)-3-(2,3,4-trimethoxyphenyl)acrylate], the melting point fell in the range of 119 to 121 °C. Moreover, the midpoint of inhibition in data set [1], the IC50, lay at 20.3 ± 0.44 µM.
The corresponding values for `CCOC(=O)/C(=C/c1ccc(OC)c(OC)c1OC)NC(=O)c1ccc(OC)c(OC)c1` [6b, (Z)-Ethyl 2-(3,4-dimethoxybenzamido)-3-(2,3,4-trimethoxyphenyl)acrylate] are 154 to 156 °C and 17.1 ± 0.49 µM.
On the same counts, the results for `CCCCOC(=O)C(=Cc1ccc(OC)c(OC)c1OC)NC(=O)c1cc(OC)c(OC)c(OC)c1` [6i, Butyl 2-(3,4,5-trimethoxybenzamido)-3-(2,3,4-trimethoxyphenyl)acrylate] are 118 to 120 °C and 33 ± 1.03 µM.
`COC(=O)/C(=C/c1ccc(OC)c(OC)c1OC)NC(=O)c1ccc(OC)c(OC)c1` [6a, (Z)-Methyl 2-(3,4-dimethoxybenzamido)-3-(2,3,4-trimethoxyphenyl)acrylate] had a melting point of 177 to 179 °C. In data set [1], this molecule showed a half-inhibitory concentration (IC50) of 6.74 ± 0.78 µM.
In turn, `COc1cc(C(=O)N/C(=C\c2ccc(OC)c(OC)c2OC)C(=O)O)cc(OC)c1OC` [5b, (Z)-2-(3,4,5-Trimethoxybenzamido)-3-(2,3,4-trimethoxyphenyl)acrylic acid] came in with a melting point of 217 to 219 °C. The molecule further came in with an IC50 in data set [1] of 5.12 ± 0.32 µM.
The corresponding values for `CCCCOC(=O)/C(=C/c1ccc(OC)c(OC)c1OC)NC(=O)c1ccc(OC)c(OC)c1` [6d, (Z)-Butyl 2-(3,4-dimethoxybenzamido)-3-(2,3,4-trimethoxyphenyl)acrylate] are 132 to 134 °C and 42.1 ± 0.96 µM.
Take `COc1ccc(/C=C\c2cc(OC)c(OC)c(OC)c2)cc1O` [CA-4, combretastatin A-4, reference compound]: the 50% inhibitory concentration (IC50) stood at 1.25 ± 0.08 µM in data set [1] and 13.2 ± 0.19 µM in the data set with MCF-10A. The “β-tubulin polymerization inhibition percentage” value at β-tubulin is 89.17% and 82.82%.
`COc1cc(C(=O)N/C(=C\c2ccc(OC)c(OC)c2OC)C(=O)OC(C)C)cc(OC)c1OC` [6h, (Z)-Isopropyl 2-(3,4,5-trimethoxybenzamido)-3-(2,3,4-trimethoxyphenyl)acrylate] registered a melting point of 105 to 107 °C. For the same molecule, 7.08 ± 0.29 µM corresponded to half-maximal inhibition in data set [1] (IC50).
As to `COc1ccc(C(=O)N/C(=C\c2ccc(OC)c(OC)c2OC)C(=O)O)cc1OC` [5a, (Z)-2-(3,4-Dimethoxybenzamido)-3-(2,3,4-trimethoxyphenyl)acrylic acid], the melting point lay in the range of 201 to 203 °C. In data set [1], this molecule came in with an IC50 of 9.31 ± 0.35 µM.
For `COC(=O)/C(=C/c1ccc(OC)c(OC)c1OC)NC(=O)c1cc(OC)c(OC)c(OC)c1` [6e, (Z)-Methyl 2-(3,4,5-trimethoxybenzamido)-3-(2,3,4-trimethoxyphenyl)acrylate], in the data set on Bcl-2, the “Bcl-2 gene expression level, fold relative to untreated cells (decrease)” value is recorded as 0.38 fold. In addition, the IC50 in data set [1] stood at 2.57 ± 0.16 µM; with MCF-10A it was 19.1 ± 0.31 µM. Further, the “late stage apoptotic cells” value in data set [2] (control 0.24%) was determined as 23.28%. Besides, the “early stage apoptotic cells” value in data set [2] (control 0.38%) amounted to 14.55%. Further, the “Bax gene expression level, fold relative to untreated control cells” value with Bax was 3.99 fold. For the same molecule, the “increase of the ratio of Bax/Bcl-2 compared to untreated cells” value in the data set on Bax/Bcl-2 is on record as 10.5 fold. The “fold decrease in the level of β-tubulin polymerization compared to untreated control cells” value at β-tubulin (2.57 μM) turned out to be 5.73 fold. Moreover, on β-tubulin, the “β-tubulin polymerization inhibition percentage” value was determined as 81.16%. The “p53 gene expression level, fold relative to untreated control cells” value in the data set with p53 was 6.18 fold. For the same molecule, in [3] (control 8.20%), the “cell population in G2/M phase” value was determined as 29.96%. Further, the “cell population in S phase” value in [3] (control 26.88%) came to 22.06%. Further, the “cell population in G1 phase” value in [3] (control 54.92%) is 47.98%.
For the molecule `CCCOC(=O)/C(=C/c1ccc(OC)c(OC)c1OC)NC(=O)c1cc(OC)c(OC)c(OC)c1` [6g, (Z)-Propyl 2-(3,4,5-trimethoxybenzamido)-3-(2,3,4-trimethoxyphenyl)acrylate], the melting point lay in the range of 111 to 113 °C. Also, in [1], the IC50 came out at 11.3 ± 0.75 µM.
The corresponding values for `CCOC(=O)/C(=C/c1ccc(OC)c(OC)c1OC)NC(=O)c1cc(OC)c(OC)c(OC)c1` [6f, (Z)-Ethyl 2-(3,4,5-trimethoxybenzamido)-3-(2,3,4-trimethoxyphenyl)acrylate] are 127 to 129 °C and 3.26 ± 0.21 µM.
